{"source": "ChEMBL document CHEMBL4819110", "about": "“Developments of small molecules as inhibitors for carbonic anhydrase isoforms” (Bioorg Med Chem, 2021)", "key": {"Carbonic anhydrase 9": {"target": "Carbonic anhydrase 9 (Homo sapiens, UniProt Q16790)", "description": "Inhibition of human CA9 by stopped-flow assay"}, "HT-29 [1]": {"tested_on": "HT-29", "test": "Down regulation of CA12 expression in human HT-29 cells at […] by western blot analysis", "type": "functional, cell-based"}, "HT-29 [2]": {"tested_on": "HT-29", "test": "Down regulation of CA9 expression in human HT-29 cells at […] by western blot analysis", "type": "functional, cell-based"}, "MCF7": {"tested_on": "MCF7", "test": "Cytotoxicity against human MCF7 cells", "type": "functional, cell-based"}, "Oryctolagus cuniculus": {"tested_on": "Oryctolagus cuniculus", "test": "Antiglaucoma activity in rabbit assessed as reduction in intraocular pressure administered topically measured upto 6 hrs", "type": "functional, organism-based", "conditions": "time hrs <=6"}, "[3]": {"target": "Mitogen-activated protein kinase 14 (Homo sapiens, UniProt Q16539)", "sequence (Q16539 whole entry)": "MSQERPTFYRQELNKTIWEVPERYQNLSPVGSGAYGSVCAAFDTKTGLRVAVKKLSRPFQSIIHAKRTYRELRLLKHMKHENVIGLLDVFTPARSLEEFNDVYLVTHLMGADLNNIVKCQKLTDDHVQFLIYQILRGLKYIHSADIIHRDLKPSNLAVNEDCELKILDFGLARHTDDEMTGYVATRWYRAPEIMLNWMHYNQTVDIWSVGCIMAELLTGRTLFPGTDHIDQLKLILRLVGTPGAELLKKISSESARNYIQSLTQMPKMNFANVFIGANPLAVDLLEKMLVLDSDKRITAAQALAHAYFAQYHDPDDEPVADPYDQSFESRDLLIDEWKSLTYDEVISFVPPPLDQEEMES", "test": "Inhibition of p38alphaMAPK (unknown origin)"}, "Carbonic anhydrase 1": {"target": "Carbonic anhydrase 1 (Homo sapiens, UniProt P00915)", "sequence (P00915 whole entry)": "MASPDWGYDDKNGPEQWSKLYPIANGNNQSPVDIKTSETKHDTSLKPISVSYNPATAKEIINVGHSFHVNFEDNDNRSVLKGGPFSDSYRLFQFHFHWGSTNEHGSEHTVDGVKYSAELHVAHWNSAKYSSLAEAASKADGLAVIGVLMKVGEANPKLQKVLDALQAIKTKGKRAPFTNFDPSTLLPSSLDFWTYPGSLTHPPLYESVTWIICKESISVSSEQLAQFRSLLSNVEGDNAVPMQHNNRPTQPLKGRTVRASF", "description": "Inhibition of human CA1 by stopped-flow assay"}, "Carbonic anhydrase 4": {"target": "Carbonic anhydrase 4 (Homo sapiens, UniProt P22748)", "sequence (P22748 whole entry)": "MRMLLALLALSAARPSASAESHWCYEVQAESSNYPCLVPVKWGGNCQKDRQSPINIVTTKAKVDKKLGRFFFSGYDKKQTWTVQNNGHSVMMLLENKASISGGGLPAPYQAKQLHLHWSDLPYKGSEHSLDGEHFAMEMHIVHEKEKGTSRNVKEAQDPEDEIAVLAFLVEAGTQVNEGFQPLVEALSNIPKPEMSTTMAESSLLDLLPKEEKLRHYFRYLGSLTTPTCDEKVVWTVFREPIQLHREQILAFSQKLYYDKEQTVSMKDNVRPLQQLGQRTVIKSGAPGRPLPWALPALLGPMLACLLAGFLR", "test": "Inhibition of human CA4 by stopped-flow assay"}, "Carbonic anhydrase 2": {"target": "Carbonic anhydrase 2 (Homo sapiens, UniProt P00918)", "description": "Inhibition of human CA2 by stopped-flow assay"}, "MDA-MB-231 [4]": {"tested_on": "MDA-MB-231", "test": "Induction of apoptosis in human MDA-MB-231 cells assessed as necrotic cells at IC50 by flow cytometry analysis (reference value: 0.51 %)", "type": "functional"}, "MDA-MB-231 [5]": {"tested_on": "MDA-MB-231", "test": "Induction of apoptosis in human MDA-MB-231 cells assessed as early apoptotic cells at IC50 by flow cytometry analysis (reference value: 0.77 %)", "type": "functional"}, "MDA-MB-231 [6]": {"tested_on": "MDA-MB-231", "test": "Induction of apoptosis in human MDA-MB-231 cells assessed as late apoptotic cells at IC50 by flow cytometry analysis (reference value: 0.26 %)", "type": "functional"}, "MDA-MB-231 [7]": {"tested_on": "MDA-MB-231", "test": "Induction of cell cycle arrest in human MDA-MB-231 cells assessed as increase in sub-G1 accumulation at IC50 by flow cytometry analysis", "type": "functional, cell-based"}, "MDA-MB-231 [8]": {"tested_on": "MDA-MB-231", "test": "Induction of cell cycle arrest in human MDA-MB-231 cells assessed as […] in G2/M accumulation at IC50 by flow cytometry analysis", "type": "functional, cell-based"}}, "note": "Activity calls are given as the source filed them. The rule behind the calls is not given here."}
{"smiles": "COc1cc(/C=C2/N=C(c3ccccc3)N(c3ccc(S(N)(=O)=O)cc3)C2=O)cc(OC)c1OC", "values": [{"measurement": "Ki", "setting": "Carbonic anhydrase 9", "result": 0.0682, "unit": "µM"}]}
{"smiles": "NS(=O)(=O)c1ccc(C/N=C/c2c(OCc3cn(CCCOc4ccc5ccc(=O)oc5c4)nn3)ccc3ccccc23)cc1", "values": [{"measurement": "Activity", "setting": "HT-29 [1]", "result": "Active"}, {"measurement": "Activity", "setting": "HT-29 [2]", "result": "Active"}]}
{"smiles": "CN(C)c1ccc(/C=C2/N=C(c3ccccc3)N(Nc3csc(Nc4ccc(S(N)(=O)=O)cc4)n3)C2=O)cc1", "values": [{"measurement": "IC50", "setting": "MCF7", "result": 38.9, "unit": "µM"}]}
{"smiles": "NS(=O)(=O)c1ccc(C(=O)N[C@@H]2O[C@H](CO)[C@@H](O)[C@H](O)[C@@H]2O)cc1", "values": [{"measurement": "Activity", "setting": "Oryctolagus cuniculus", "result": "Active"}]}
{"smiles": "NS(=O)(=O)c1ccc(N2C(=O)/C(=C\\c3ccccc3)N=C2c2ccccc2)cc1", "values": [{"measurement": "Ki", "setting": "Carbonic anhydrase 9", "result": 0.0587, "unit": "µM"}]}
{"smiles": "NS(=O)(=O)c1ccc(-n2nnc(C(=O)O)c2-c2ccccn2)cc1", "values": [{"measurement": "Ki", "setting": "Carbonic anhydrase 9", "result": 1.41, "unit": "µM"}]}
{"smiles": "COc1ccc(C2=N/C(=C/c3ccc(O)cc3)C(=O)N2c2ccc(S(N)(=O)=O)cc2)cc1", "values": [{"measurement": "IC50", "setting": "[3]", "result": 0.14, "unit": "µM"}, {"measurement": "Ki", "setting": "Carbonic anhydrase 9", "result": 0.0124, "unit": "µM"}, {"measurement": "Ki", "setting": "Carbonic anhydrase 1", "result": 0.095, "unit": "µM"}, {"measurement": "Ki", "setting": "Carbonic anhydrase 4", "result": 0.0069, "unit": "µM"}, {"measurement": "Ki", "setting": "Carbonic anhydrase 2", "result": 0.00083, "unit": "µM"}]}
{"smiles": "O=Cc1ccccc1OCc1cn(CCCOc2ccc3ccc(=O)oc3c2)nn1", "values": [{"measurement": "Ki", "setting": "Carbonic anhydrase 9", "result": 0.0609, "unit": "µM"}, {"measurement": "Activity", "setting": "HT-29 [1]", "result": "Active"}, {"measurement": "Activity", "setting": "HT-29 [2]", "result": "Active"}]}
{"smiles": "C[C@@H]1OC[C@@](O)(NC(=O)c2ccc(S(N)(=O)=O)cc2)[C@H](O)[C@H]1O", "values": [{"measurement": "IC50", "setting": "Carbonic anhydrase 9", "result": 0.76, "unit": "µM"}]}
{"smiles": "NS(=O)(=O)c1ccc(-n2nnc(C(=O)N3N=C(c4ccccn4)CC3(O)C(F)(F)F)c2-c2ccc(F)cc2)cc1", "note": "(stereo not drawn)", "values": [{"measurement": "Ki", "setting": "Carbonic anhydrase 9", "result": 0.0007, "unit": "µM"}]}
{"smiles": "CC(=O)n1cc(/C=C2/N=C(c3ncccn3)N(c3ccc(S(N)(=O)=O)cc3)C2=O)c2ccccc21", "values": [{"measurement": "Ki", "setting": "Carbonic anhydrase 9", "result": "> 10", "unit": "µM"}, {"measurement": "Ki", "setting": "Carbonic anhydrase 1", "result": "> 10", "unit": "µM"}, {"measurement": "Ki", "setting": "Carbonic anhydrase 4", "result": "> 10", "unit": "µM"}, {"measurement": "Ki", "setting": "Carbonic anhydrase 2", "result": "> 10", "unit": "µM"}]}
{"smiles": "NS(=O)(=O)c1ccc(Nc2nc(NN3C(=O)/C(=C\\c4ccccc4)N=C3c3ccccc3)cs2)cc1", "values": [{"measurement": "IC50", "setting": "MCF7", "result": 45.9, "unit": "µM"}]}
{"smiles": "NS(=O)(=O)c1ccc(C(=O)N[C@@H]2OC[C@@H](O)[C@H](O)[C@H]2O)cc1", "values": [{"measurement": "Activity", "setting": "Oryctolagus cuniculus", "result": "Active"}]}
{"smiles": "COC(=O)[C@H]1O[C@@H](NC(=O)c2ccc(S(N)(=O)=O)cc2)[C@H](O)[C@@H](O)[C@@H]1O", "values": [{"measurement": "Activity", "setting": "Oryctolagus cuniculus", "result": "Active"}]}
{"smiles": "CCN1C(=O)/C(=N\\NC(=O)c2ccc(S(N)(=O)=O)cc2)c2ccccc21", "values": [{"measurement": "Ki", "setting": "Carbonic anhydrase 9", "result": 0.0089, "unit": "µM"}]}
{"smiles": "CC(=O)NS(=O)(=O)c1ccc(N2C(=O)/C(=C\\c3cn(C(C)=O)c4ccccc34)N=C2c2ccccc2)cc1", "values": [{"measurement": "Ki", "setting": "Carbonic anhydrase 9", "result": 1.47, "unit": "µM"}, {"measurement": "Ki", "setting": "Carbonic anhydrase 4", "result": "> 10", "unit": "µM"}]}
{"smiles": "NS(=O)(=O)c1ccc(Nc2nc(NN3C(=O)/C(=C\\c4ccc(Cl)cc4)N=C3c3ccccc3)cs2)cc1", "values": [{"measurement": "Ki", "setting": "Carbonic anhydrase 9", "result": 0.0292, "unit": "µM"}, {"measurement": "IC50", "setting": "MCF7", "result": "> 150", "unit": "µM"}]}
{"smiles": "CC(=O)n1cc(/C=C2/N=C(c3ccccc3)N(c3ccc(S(N)(=O)=O)cc3)C2=O)c2ccccc21", "values": [{"measurement": "Ki", "setting": "Carbonic anhydrase 9", "result": 0.318, "unit": "µM"}, {"measurement": "Ki", "setting": "Carbonic anhydrase 4", "result": 0.263, "unit": "µM"}]}
{"smiles": "COc1ccc(OC)c(/C=C2/N=C(c3ccccc3)N(c3ccc(S(N)(=O)=O)cc3)C2=O)c1", "values": [{"measurement": "Ki", "setting": "Carbonic anhydrase 9", "result": 0.023, "unit": "µM"}]}
{"smiles": "NS(=O)(=O)c1ccc(NC(=O)Nc2ccc(/N=C3\\C(=O)Nc4ccc(Cl)cc43)cc2)cc1", "values": [{"measurement": "Ki", "setting": "Carbonic anhydrase 9", "result": 7430, "unit": "µM"}, {"measurement": "Activity", "setting": "MDA-MB-231 [4]", "result": 2.47, "unit": "%"}, {"measurement": "Activity", "setting": "MDA-MB-231 [5]", "result": 7.28, "unit": "%"}, {"measurement": "Activity", "setting": "MDA-MB-231 [6]", "result": 11.26, "unit": "%"}, {"measurement": "Activity", "setting": "MDA-MB-231 [7]", "result": "Active"}, {"measurement": "Activity", "setting": "MDA-MB-231 [8]", "result": "Active"}]}
